In patent US11441162B2, “Human gut microbiome-derived biosynthetic enzymes for production of fatty acid amides” (Massachusetts Institute of Technology, priority 2019, dated 2022):
Where two headings read alike, the source gives them in different places.

How the values were obtained:
GPR132 [1] = target: T1, GPR132 (Homo sapiens, UniProt Q9UNW8); conditions: previously reported human microbiome-derived FAA GPCR modulator; read-out: GPR132 agonist at (previously reported); cited from earlier work
T1 sequence (Q9UNW8 1-380): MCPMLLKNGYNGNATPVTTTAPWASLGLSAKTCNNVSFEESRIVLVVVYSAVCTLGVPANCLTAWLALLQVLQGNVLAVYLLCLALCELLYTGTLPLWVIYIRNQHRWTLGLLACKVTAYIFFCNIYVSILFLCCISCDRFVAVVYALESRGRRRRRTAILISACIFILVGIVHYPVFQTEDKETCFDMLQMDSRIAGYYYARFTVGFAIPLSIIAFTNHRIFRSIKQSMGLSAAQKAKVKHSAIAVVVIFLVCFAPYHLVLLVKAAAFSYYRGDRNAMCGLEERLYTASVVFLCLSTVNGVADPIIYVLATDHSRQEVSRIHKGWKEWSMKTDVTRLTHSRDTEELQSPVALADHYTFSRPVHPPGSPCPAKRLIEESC

[2] = system: C protein of the L. clostridioforme, B. producta, C. celatum, C. sp pathways; assay: Substrate panel assay, condensation activity on amine panel; assay type: biochemical, Clostridia; conditions: highest amine substrate of the panel for these four pathways; α-linolenic acid as fatty acid
Method: The human gut lumen consists of various fatty acid and amine substrates from different sources that the pathway can incorporate for FAA production. To characterize the preferred product, an in vitro substrate panel assay was set up to investigate substrate selectivity of the biosynthetic enzymes for each of the eight identified HMP-derived pathways (FIG. 2A). A and C enzyme activity was measured for defined fatty acid and amines, respectively, to determine the substrates that each pathway prefers to incorporate for FAA production (FIG. 2B-2C). A panel of 25 fatty acids and 53 biogenic amines derived from Clostridia, human cells, and human diet that are known to be abundant in the human gut was selected (FIG. 2D).^43,44,45,46,47 For consistency, FAA product level, instead of PPi level, was used as the metric of A activity for the panel assay by adding tryptamine for all query fatty acid substrates to measure the level of C-independent FAA formation based on the UV absorbance of the indole chromophore (FIG. 2B). […]
For adenylation activity, adenylation and thiolation proteins (no condensation) were added with the query fatty acid substrate(s) and tryptamine as a UV-active chromophore. […] The reaction was mixed with equal volume of methanol, spun down at 21,000 g for 1 min, and analyzed with the same analytical LCMS run as described previously. […]

GPR132 [3] = target: T1, GPR132; assay: Cell-based β-arrestin reporter assay (DiscoverX), GPR132 agonist mode: orphan panel at 10 uM and concentration-response
Method: FIGS. 31A-31H show GPCR activity assay of lauroyl tryptamine. a, Cell-based β-arrestin reporter assay (DiscoveRx) with a panel of 168 GPCRs with known ligands in agonist mode and antagonist mode, and also 73 orphan GPCRs in agonist mode at 10 uM. Agonist mode measures % activity of target GPCR by the compound, relative to the baseline value (0% activity) and maximum value with a known ligand, or twofold increase over baseline for orphan GPCR (100% activation). Antagonist mode measures % inhibition of target GPCR by the compound in the presence of a known ligand, relative to the value at the EC80 (0% inhibition) and basal value (100% inhibition). […] EBI2 antagonist activity (δ1%) is marked with an asterisk (*). b, Concentration-dose response curves of the inhibitory activity of lauroyl tryptamine, tryptamine, and lauric acid on EBI2 in the presence of the native agonist 7α,25-dihydroxycholesterol (7a,25-diHC) at 0.232 uM (EC80). […] IC50>100 uM for all three compounds. d, Concentration-dose response curves of the stimulatory activity of lauroyl tryptamine, tryptamine, and lauric acid on GPR132. […] For b, c, d, the curves span ten concentration points in duplicates from 100 to 0.0051 uM, with the error bar being the s.d. from duplicates. e, MS chromatogram (EIC ESI+[M+H]^+ m/z of lauroyl tryptamine, theoretical=343.2744, experimental=[…]) of the in vivo extract of E. rectale in RCM media (with no fed substrates). […] The production titer was determined to be 0.04 mg/L. f, Product titer of fatty acyl tryptamine from the in vivo extract of E. rectale in RCM, when fed with exogenous fatty acid (lauric acid, linoleic acid, oleic acid, docosahexaenoic acid, or α-linolenic acid). g, Mapping of human gut metatranscriptomic reads from subject subX316701492 (accession: SRX247340) onto a 80 kb region of the E. rectale genome centered on the FAA pathway (darker arrows, labeled “FAA”). […]
(§1) FAAs are known to modulate diverse biological functions by interacting with human GPCRs. […] The FAAs were analyzed for activity against a panel of known and orphan human GPCRs using the DiscoverX platform. […]

P2RY4 = P2RY4 (Homo sapiens, UniProt P51582); assay: Cell-based β-arrestin reporter assay (DiscoverX), P2RY4 antagonist mode: panel at 10 uM and concentration-response; conditions: in the presence of native agonist UTP at 2.79 uM (EC80); ten concentrations 100 to 0.0051 uM; read-out: IC50, inhibitory activity on P2RY4
Method: FIGS. 31A-31H show GPCR activity assay of lauroyl tryptamine. a, Cell-based β-arrestin reporter assay (DiscoveRx) with a panel of 168 GPCRs with known ligands in agonist mode and antagonist mode, and also 73 orphan GPCRs in agonist mode at 10 uM. Agonist mode measures % activity of target GPCR by the compound, relative to the baseline value (0% activity) and maximum value with a known ligand, or twofold increase over baseline for orphan GPCR (100% activation). Antagonist mode measures % inhibition of target GPCR by the compound in the presence of a known ligand, relative to the value at the EC80 (0% inhibition) and basal value (100% inhibition). […] The production titer was determined to be 0.04 mg/L. f, Product titer of fatty acyl tryptamine from the in vivo extract of E. rectale in RCM, when fed with exogenous fatty acid (lauric acid, linoleic acid, oleic acid, docosahexaenoic acid, or α-linolenic acid). g, Mapping of human gut metatranscriptomic reads from subject subX316701492 (accession: SRX247340) onto a 80 kb region of the E. rectale genome centered on the FAA pathway (darker arrows, labeled “FAA”). […]
as §1

EBI2/GPR183 = EBI2/GPR183 (Homo sapiens, UniProt P32249); assay: Cell-based β-arrestin reporter assay (DiscoverX), EBI2 antagonist mode: panel at 10 uM and concentration-response; conditions: for inhibition on EBI2 (concentration-response, in words): antagonist mode against 7α,25-diHC; for IC50: in the presence of native agonist 7α,25-dihydroxycholesterol at 0.232 uM (EC80), ten concentrations 100 to 0.0051 uM, read-out: IC50, inhibitory activity on EBI2
Method: FIGS. 31A-31H show GPCR activity assay of lauroyl tryptamine. a, Cell-based β-arrestin reporter assay (DiscoveRx) with a panel of 168 GPCRs with known ligands in agonist mode and antagonist mode, and also 73 orphan GPCRs in agonist mode at 10 uM. Agonist mode measures % activity of target GPCR by the compound, relative to the baseline value (0% activity) and maximum value with a known ligand, or twofold increase over baseline for orphan GPCR (100% activation). Antagonist mode measures % inhibition of target GPCR by the compound in the presence of a known ligand, relative to the value at the EC80 (0% inhibition) and basal value (100% inhibition). […] EBI2 antagonist activity (δ1%) is marked with an asterisk (*). b, Concentration-dose response curves of the inhibitory activity of lauroyl tryptamine, tryptamine, and lauric acid on EBI2 in the presence of the native agonist 7α,25-dihydroxycholesterol (7a,25-diHC) at 0.232 uM (EC80). […] IC50>100 uM for all three compounds. d, Concentration-dose response curves of the stimulatory activity of lauroyl tryptamine, tryptamine, and lauric acid on GPR132. […] For b, c, d, the curves span ten concentration points in duplicates from 100 to 0.0051 uM, with the error bar being the s.d. from duplicates. e, MS chromatogram (EIC ESI+[M+H]^+ m/z of lauroyl tryptamine, theoretical=343.2744, experimental=[…]) of the in vivo extract of E. rectale in RCM media (with no fed substrates). The samples are injected alongside a chemically synthesized and structurally verified standard. The * denotes lauroyl tryptamine. The production titer was determined to be 0.04 mg/L. f, Product titer of fatty acyl tryptamine from the in vivo extract of E. rectale in RCM, when fed with exogenous fatty acid (lauric acid, linoleic acid, oleic acid, docosahexaenoic acid, or α-linolenic acid). g, Mapping of human gut metatranscriptomic reads from subject subX316701492 (accession: SRX247340) onto a 80 kb region of the E. rectale genome centered on the FAA pathway (darker arrows, labeled “FAA”). The mean coverage of the 80 kb segment was 0.8 (SD=3.3), while the mean coverage of the FAA pathway by itself was 1.5 (SD=1.1). Housekeeping genes within this segment include tRNA synthetase (tR), carbohydrate metabolism (CM), and sugar transporter (ST) genes. h, Immunological and development role of the EBI2-oxysterol axis and its suppression by E. rectale-derived lauroyl tryptamine to possibly protect against IBD.
FAAs are known to modulate diverse biological functions by interacting with human GPCRs. The products of the FAA screen are either known GPCR ligands or appear to structurally mimic these molecules (FIG. 30). The FAAs were analyzed for activity against a panel of known and orphan human GPCRs using the DiscoverX platform. […]

PRLHR = target: T2, PRLHR (Homo sapiens, UniProt P49683); assay: Cell-based β-arrestin reporter GPCR panel (DiscoverX) at 10 uM, PRLHR; conditions: compound at 10 uM
T2 sequence (P49683 1-370): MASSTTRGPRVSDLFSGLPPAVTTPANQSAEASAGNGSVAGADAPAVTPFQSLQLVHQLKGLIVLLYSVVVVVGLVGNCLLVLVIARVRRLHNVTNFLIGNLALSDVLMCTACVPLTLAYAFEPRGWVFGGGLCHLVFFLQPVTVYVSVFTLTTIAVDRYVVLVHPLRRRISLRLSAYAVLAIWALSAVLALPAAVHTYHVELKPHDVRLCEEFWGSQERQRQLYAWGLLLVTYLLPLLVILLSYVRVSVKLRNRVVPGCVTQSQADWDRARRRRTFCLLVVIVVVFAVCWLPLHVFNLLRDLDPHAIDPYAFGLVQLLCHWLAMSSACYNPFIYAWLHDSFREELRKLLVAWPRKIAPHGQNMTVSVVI
Method: (§2) Cell-based β-arrestin reporter assay (DiscoveRx) with a panel of 168 GPCRs with known ligands in agonist mode and antagonist mode, and also 73 orphan GPCRs in agonist mode at 10 uM. Agonist mode measures % activity of target GPCR by the compound, relative to the baseline value (0% activity) and maximum value with a known ligand, or twofold increase over baseline for orphan GPCR (100% activation). Antagonist mode measures % inhibition of target GPCR by the compound in the presence of a known ligand, relative to the value at the EC80 (0% inhibition) and basal value (100% inhibition).
(§3) FAAs are known to modulate diverse biological functions by interacting with human GPCRs. The products of the FAA screen are either known GPCR ligands or appear to structurally mimic these molecules (FIG. 30). The FAAs were analyzed for activity against a panel of known and orphan human GPCRs using the DiscoverX platform. The major compound from the four human gut metagenome-derived pathways (oleoyl dopamine, oleoyl tyramine, oleoyl aminovaleric acid, and lauroyl tryptamine) were chemically synthesized and screened at 10 uM on a panel of 168 known GPCRs covering 60 distinct receptors in both agonist and antagonist mode and 73 orphan GPCRs in agonist mode. […]

NPSR1b = target: T3, NPSR1b (Homo sapiens, UniProt Q6W5P4); assay: Cell-based β-arrestin reporter GPCR panel (DiscoverX) at 10 uM, NPSR1b; conditions: compound at 10 uM
T3 sequence (Q6W5P4 1-377 isoform Q6W5P4-4): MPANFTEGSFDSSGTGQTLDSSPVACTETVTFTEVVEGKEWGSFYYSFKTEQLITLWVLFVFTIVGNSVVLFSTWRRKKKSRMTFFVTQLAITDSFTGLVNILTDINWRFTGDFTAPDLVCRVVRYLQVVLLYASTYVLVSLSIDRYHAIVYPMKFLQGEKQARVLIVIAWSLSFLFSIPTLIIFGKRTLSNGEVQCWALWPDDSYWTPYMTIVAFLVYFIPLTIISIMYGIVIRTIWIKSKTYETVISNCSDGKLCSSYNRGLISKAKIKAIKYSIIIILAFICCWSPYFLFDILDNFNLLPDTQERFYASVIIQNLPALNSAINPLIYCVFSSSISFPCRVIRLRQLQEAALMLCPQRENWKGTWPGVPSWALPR
Method: as §2, §3

PTGER4 = PTGER4 (Homo sapiens, UniProt P35408); assay: Cell-based β-arrestin reporter GPCR panel (DiscoverX) at 10 uM, PTGER4; conditions: antagonist mode, compound at 10 uM
Method: as §2, §3

[4] = agonist mode, ten concentrations 100 to 0.0051 uM, read-out: EC50, stimulatory activity on GPR132

EBI2/GPR183, sequence (P32249 whole entry): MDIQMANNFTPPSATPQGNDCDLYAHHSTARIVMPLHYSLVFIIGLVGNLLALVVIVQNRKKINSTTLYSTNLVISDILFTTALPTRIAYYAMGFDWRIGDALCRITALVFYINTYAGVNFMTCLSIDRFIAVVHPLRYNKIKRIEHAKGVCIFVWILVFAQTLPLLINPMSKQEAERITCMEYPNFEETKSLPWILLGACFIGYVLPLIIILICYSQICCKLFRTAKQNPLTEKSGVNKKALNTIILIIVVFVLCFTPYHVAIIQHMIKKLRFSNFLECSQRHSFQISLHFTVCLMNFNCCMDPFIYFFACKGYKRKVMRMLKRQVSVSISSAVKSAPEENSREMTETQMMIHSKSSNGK
P2RY4, sequence (P51582 whole entry): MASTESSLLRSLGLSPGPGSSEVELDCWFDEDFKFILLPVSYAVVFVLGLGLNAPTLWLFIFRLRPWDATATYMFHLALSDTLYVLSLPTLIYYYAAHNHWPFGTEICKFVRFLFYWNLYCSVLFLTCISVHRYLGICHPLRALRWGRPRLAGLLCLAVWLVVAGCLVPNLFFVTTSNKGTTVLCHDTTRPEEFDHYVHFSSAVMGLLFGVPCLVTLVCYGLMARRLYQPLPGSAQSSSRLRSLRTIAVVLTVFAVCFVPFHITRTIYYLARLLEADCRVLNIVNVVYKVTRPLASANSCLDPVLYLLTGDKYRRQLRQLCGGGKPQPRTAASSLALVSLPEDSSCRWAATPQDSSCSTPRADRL
PTGER4, sequence (P35408 whole entry): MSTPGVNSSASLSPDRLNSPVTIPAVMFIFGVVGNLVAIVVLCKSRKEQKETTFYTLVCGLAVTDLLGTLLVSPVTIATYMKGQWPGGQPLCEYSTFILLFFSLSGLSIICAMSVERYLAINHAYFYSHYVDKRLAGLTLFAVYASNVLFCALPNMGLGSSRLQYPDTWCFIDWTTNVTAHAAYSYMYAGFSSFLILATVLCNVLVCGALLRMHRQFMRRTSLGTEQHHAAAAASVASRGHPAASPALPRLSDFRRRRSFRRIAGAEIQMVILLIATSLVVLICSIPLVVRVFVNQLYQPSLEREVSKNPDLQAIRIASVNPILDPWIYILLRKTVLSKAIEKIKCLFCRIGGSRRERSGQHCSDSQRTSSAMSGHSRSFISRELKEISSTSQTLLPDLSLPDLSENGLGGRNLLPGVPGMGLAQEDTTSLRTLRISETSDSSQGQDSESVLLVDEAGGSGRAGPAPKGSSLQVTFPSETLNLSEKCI

CCCCCCCCCCCCCC(O)CC(=O)NCC(=O)O (centres unmarked) [commendamine]
EC50 (GPR132 [1]): 11.8 µM

N[C@@H](CCS)C(=O)O [homocysteine]
C protein enzymatic activity, fold difference with vs without condensation enzyme [2]: 2 fold

CCCCCCCCCCCC(=O)O [lauric acid]
EC50 (GPR132 [3]; [4]): 25.2 µM | IC50 (P2RY4): > 100 µM | inhibition on EBI2 (concentration-response, in words) (EBI2/GPR183): Neither lauric acid nor tryptamine showed inhibition | IC50 (EBI2/GPR183): > 100 µM

CCCCCCCCCCCC(=O)NCCc1c[nH]c2ccccc12 [lauroyl tryptamine]
EC50 (GPR132 [3]; [4]): 1.45 µM | IC50 (P2RY4): > 100 µM | IC50 (EBI2/GPR183): 0.98 µM

CCCCCCCC/C=C\CCCCCCCC(=O)NCCc1ccc(O)cc1 [oleoyl tyramine]
activity on PRLHR in GPCR panel (PRLHR): shares activity | activity on NPSR1b in GPCR panel (NPSR1b): shares activity

NCCc1c[nH]c2ccccc12 [tryptamine]
EC50 (GPR132 [3]): > 100 µM | inhibition on EBI2 (concentration-response, in words) (EBI2/GPR183): Neither lauric acid nor tryptamine showed inhibition

oleoyl aminovaleric acid
inhibition of PTGER4 in GPCR panel (PTGER4): Inhibition was observed
